What was measured:
[1] = Compatibility study of carbidopa-levodopa granule raw materials and excipients at 40°C/75% RH; assay type: physicochemical
Description: (§1) After preparation into the formulation, there was a risk of exceeding the limit for related substances in terms of stability.

[2] = Compatibility study of voriconazole granule raw material and excipients at 40°C/75% RH; assay type: physicochemical
Description: as §1

With `C[C@@](Cc1ccc(O)c(O)c1)(NN)C(=O)O` [Carbidopa] the Appearance [1] was “No change”, the “Total impurities (%)” value ([1]; 0 Days) was 0.10% and the “Total impurities (%)” value ([1]; 14 Days) was 0.08%. For the same molecule, the “Total impurities (%)” value ([1]; 28 Days) was 0.07%.
In the case of `N[C@@H](Cc1ccc(O)c(O)c1)C(=O)O` [Levodopa], the Appearance [1] is reported as “No change”, the “Total impurities (%)” value ([1]; 0 Days) is reported as “Not detected” and the “Total impurities (%)” value ([1]; 14 Days) is reported as 0.03%. For the same molecule, the “Total impurities (%)” value ([1]; 28 Days) was 0.07%.
For `C[C@@H](c1ncncc1F)[C@](O)(Cn1cncn1)c1ccc(F)cc1F` [Voriconazole], the Appearance [2] was “No change”, the Total impurities (%) ([2]; 0 Days) was 0.01% and the Total impurities (%) ([2]; 14 Days) was 0.01%. For the same molecule, the Total impurities (%) ([2]; 28 Days) was 0.01%.
